# Laboratory results taken from patent US20090169538A1, “Methods of Treating or Preventing Tissue Damage Caused by Increased Blood Flow” (REGENERX BIOPHARMACEUTICALS, INC., priority 2006, published 2009).
# Test system: embryonic heart explants
# Format: cell-based
# Details: explants in presence of thymosin β4 with 100 nM wortmanin, p<0.05
# Description: To test the effects of secreted thymosin β4 on cardiac cell migration, an embryonic heart explant system designed to assay cell migration and transformation events on a three-dimensional collagen gel was utilized. In this assay, explants of adjacent embryonic myocardium and endocardium from valve-forming regions were placed on a collagen gel with the endocardium adjacent to the collagen.
# Outflow tract was dissected from E11.5 wild type mouse embryos and placed on collagen matrices as previously described. After 10 hours of attachment explants were incubated in 30 ng/300 μl thymosin β4 in PBS, PBS alone or thymosin β4 and 100 nM wortmanin. Cultures were carried out for 3-9 days at 37° C. 5% CO2 and fixed in 4% paraformaldehyde in PBS for 10 min at RT. Cells were counted for quantification of migration and distance using at least three separate explants under each condition for endothelial migration and eight separate explants for myocardial migration.
# Paraformaldehyde-fixed explants were permeabilized for 10 min at RT with Permeabilize solution (10 mM PIPES pH6.8; 50 mMNaCl; 0.5% Triton X-100; 300 mM Sucrose; 3 mM MgCl2) and rinsed with PBS 2×5 min at RT. After a series of blocking and rinsing steps, detection antibodies were used and explants rinsed and incubated with Equilibration buffer (Anti-Fade kit) 10 min at room temperature. Explants were scooped to a glass microscope slide, covered, and examined by fluorescein microscopy. TUNEL assay was performed using ApopTag Plus Fluorescein In Situ Apoptosis detection kit (Intergen Company # S7111) as recommended.
smiles,measurement,value
"COC[C@H]1OC(=O)c2coc3c2[C@@]1(C)C1=C(C3=O)[C@@H]2CCC(=O)[C@@]2(C)C[C@H]1OC(C)=O [wortmanin, reference compound]",beating frequency upon inhibition of ILK,significant reduction
same,myocardial cell migration upon inhibition of ILK,significant reduction
